Among the data in patent US6875761B2 (Eisai Co., Ltd., priority 1997, dated 2005) are Ki values, retold here.

Structures can show the parent of a compound that is named as a salt.

For one experiment, the target named is T1, serotonin 1A receptor (Rattus norvegicus, UniProt P19327).
T1 construct: To the receptor fraction of the hippocampus were added a test compound and 0.5 nM of [^3H]; 8-hydroxy-dipropylaminotetralin; from tissue; host or cells: rat hippocampus membrane fraction
T1 sequence (P19327 1-422): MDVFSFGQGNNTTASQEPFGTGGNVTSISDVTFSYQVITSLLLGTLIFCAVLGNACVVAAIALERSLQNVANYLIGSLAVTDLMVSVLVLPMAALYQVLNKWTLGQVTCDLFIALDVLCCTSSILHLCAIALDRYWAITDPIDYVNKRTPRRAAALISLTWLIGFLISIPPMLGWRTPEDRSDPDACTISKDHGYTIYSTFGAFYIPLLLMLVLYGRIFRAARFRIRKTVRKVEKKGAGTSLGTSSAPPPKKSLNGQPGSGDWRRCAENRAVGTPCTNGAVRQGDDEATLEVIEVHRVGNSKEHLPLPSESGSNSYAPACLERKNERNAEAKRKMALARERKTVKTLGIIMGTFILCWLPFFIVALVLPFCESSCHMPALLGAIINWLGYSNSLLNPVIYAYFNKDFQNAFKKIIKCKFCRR
The experiment can be described thus: Binding test on [3H] 8-hydroxy-dipropylaminotetralin, hippocampus receptor fraction. More on the design: species or system SD rats. Conditions: rat hippocampus receptor fraction, 0.5 nM [3H] 8-OH-DPAT, room temperature 30 min; read-out: 5HT1.

A further experiment concerns the target T2, serotonin 2 receptor (Rattus norvegicus, UniProt P14842).
T2 construct: To the receptor fraction of the cerebral cortex were added a test compound and 0.3 nM of [^3H] ketanserin; from tissue; host or cells: rat cerebral cortex membrane fraction
The experiment can be described thus: Binding test on [3H] ketanserin, cerebral cortex receptor fraction. Particulars: 0.3 nM [3H] ketanserin, 37° C. 15 min, read-out: 5HT2. More on the design: species or system SD rats.

T2 sequence (P14842 whole entry): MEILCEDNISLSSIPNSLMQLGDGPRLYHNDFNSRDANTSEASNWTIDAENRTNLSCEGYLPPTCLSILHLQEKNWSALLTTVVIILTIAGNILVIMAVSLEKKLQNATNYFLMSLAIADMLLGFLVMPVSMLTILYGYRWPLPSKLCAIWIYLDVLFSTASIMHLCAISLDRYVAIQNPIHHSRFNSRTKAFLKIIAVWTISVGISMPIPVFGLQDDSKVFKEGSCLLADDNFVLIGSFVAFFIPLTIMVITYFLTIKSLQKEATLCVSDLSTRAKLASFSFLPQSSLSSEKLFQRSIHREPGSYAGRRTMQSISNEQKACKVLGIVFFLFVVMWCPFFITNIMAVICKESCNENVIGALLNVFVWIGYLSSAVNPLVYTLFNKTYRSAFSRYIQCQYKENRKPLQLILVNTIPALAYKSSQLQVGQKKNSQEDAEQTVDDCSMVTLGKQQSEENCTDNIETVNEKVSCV
Description for serotonin 1A receptor: (1) Binding test on serotonin 1A, serotonin 2 and α1 adrenalin receptors
The following reagents were employed in this test. • 1) Serotonin binoxalate (5-HT binoxalate, mfd. by Sigma Chemical Co.). • 2) Methysergide maleate (mfd. by RBI).
As radioisotope-labeled compounds, use was made of the following reagents (mfd. by NEN). • 3) [^3H] 8-Hydroxy-dipropylaminotetralin (8-OH-DPAT). • 4) [^3H]
Methysergide maleate was dissolved in distilled water before using.
Use was made of SD rats aged 6 to 8 weeks.
The rats were sacrificed by dcapitation to extirpate the cerebra. The hippocampus and cortex were separated therefrom and employed in the binding tests respectively on the serotonin 1A receptor and the serotonin 2 receptor.
The hippocampus was mixed with 50 times (on the wet weight basis) as much as 0.32 M sucrose solution while the cortex was mixed with 10 times as much the same solution. Each mixture was homogenized by using a Teflon glass homogenizer and centrifuged as 1,000× g for 10 min. The supernatant thus obtained was further centrifuged at 20,000× g for 20 min. The obtained precipitate was re-suspended in 50 times (based on the initial wet weight; in the case of the hippocampus) or 10 times (in the case of the cortex) as much a 50 Tris hydrochloride (pH 7.4) and incubated at room temperature for 30 min. After centrifuging at 20,000× g for 20 min, the obtained precipitate was further suspended and centrifuged twice each in the same manner. The precipitate thus obtained was suspended in 100 times (based on the initial wet weight; in the case of the hippocampus) or 20 times (in the case of the cortex) as much a 50 mM Tris hydrochloride solution (pH 7.4) to thereby give a receptor fraction. This receptor fraction was stored at −80° C. until using.
To the receptor fraction of the hippocampus were added a test compound and 0.5 nM of [^3H] 8-hydroxy-dipropylaminotetralin and the resultant mixture was incubated at room temperature for 30 min. Next, it was filtered through a glass filter with the use of a cell harvester. After washing the glass filter with 50 mM Tris hydrochloride (pH 7.4), the radioactivity of the receptor was measured with a liquid scintillation counter. The binding detected in the presence of 10 μM of serotonin binoxalate was referred to as the nonspecific binding.
IC50 was calculated by the probit method, while Ki was determined in accordance with the following formula: Ki=IC50(1+c/Kd) wherein c represents the concentration of the radioisotope-labeled compound, and Kd represents the dissociation constant of the radioisotope-labeled compound with respect to the receptor determined by Scatchard's analysis.

Regarding `CCN1CCN(c2nc(-c3ccc([C@@H]4C[C@@H](O)CCO4)cc3)cc3ccsc23)CC1` (relative stereo) [Example 455, 7-(4-ethylpiperazin-1-yl)-5-[4-(trans-4-hydroxytetrahydropyran-2-yl)phenyl]thieno[2,3-c]pyridine dihydrochloride], the Ki at serotonin 1A receptor is 50.3 nM; on serotonin 2 receptor, 40 nM.
As to `CCN1CCN(c2nc(-c3ccc(C(CC(C)O)OC)cc3)cc3ccccc23)CC1` (centres unmarked) [Example 26, 3-[4-(3-hydroxy-1-methoxybutyl)phenyl]-1-(4-ethylpiperazin-1-yl)isoquinoline], the Ki worked out at 8.5 nM at serotonin 1A receptor and 55 nM at serotonin 2 receptor.
In the case of `CCN1CCN(c2nc(-c3ccc(CCCO)cc3)cc3sccc23)CC1` [Example 465, 4-(4-ethylpiperazin-1-yl)-6-[4-(3-hydroxypropy)phenyl]thieno[3,2-c]pyridine dihydrochloride], the Ki at serotonin 1A receptor turned out to be 6.28 nM; on serotonin 2 receptor it was 7.11 nM.
With `CCN1CCN(c2nc(-c3ccc(OCCO)cc3)cc3cccnc23)CC1` [Example 245, 8-(1-ethylpiperazin-4-yl)-6-[4-(2-hydroxyethoxy)phenyl]-1,7-naphthyridine Dihydrochloride], the values for the Ki on serotonin 1A receptor and on serotonin 2 receptor were 109 nM and 72.2 nM, respectively.
The matching figures for `CCN1CCN(c2nc(-c3ccc(N4C[C@@H](C)O[C@@H](C)C4)nc3)cc3ccccc23)CC1` [Example 149, 3-[2-(2,6-dimethylmorpholin-4-yl)pyridin-5-yl]-1-(4-ethylpiperazin-1-yl)isoquinoline trihydrochloride]: 37.2 nM and 21.8 nM.
Consider `CCN1CCN(c2nc(-c3ccc(C(O)C4CCCC4)cc3)cc3ccsc23)CC1` (centres unmarked) [Example 458, 7-(4-ethylpiperazin-1-yl)-5-[4-(cyclopentylhydroxymethyl)phenyl]thieno[2,3-c]pyridine dihydrochloride], for which the Ki on serotonin 1A receptor stood at 75.4 nM; at serotonin 2 receptor it was 93.1 nM.
For `CCN1CCN(c2nc(/C=C/Cc3ccccc3OC)cc3ccccc23)CC1` [Example 211], the Ki turned out to be 5.17 nM on serotonin 1A receptor and 40.2 nM at serotonin 2 receptor.
The corresponding values for `CCN1CCN(c2nc(-c3ccc(CCCO)cn3)cc3ccccc23)CC1` [Example 134, 1-(1-Ethylpiperazin-4-yl)-3-[5-(3-Hydroxypropyl)Pyridin-2-yl]Isoquinoline] are 4.9 nM and 12.4 nM.
On to `CCN1CCN(c2nc(-c3ccc4c(c3)CCC4O)cc3ccccc23)CC1` (centres unmarked) [Example 415, 1-(4-ethylpiperazin-1-yl)-3-(1-hydroxyindan-5-yl)isoquinoline], for which the Ki on serotonin 1A receptor amounted to 3.6 nM; at serotonin 2 receptor it was 11.6 nM.
Regarding `CCN1CCN(c2nc(-c3ccc(CC(C)CO)cc3)cc3ccccc23)CC1` (centres unmarked) [Example 386, 1-(4-Ethylpiperazin-1-yl)-3-[4-(3-Hydroxy-2-Methylpropyl)Phenyl]Isoquinoline Oxalate], the Ki at serotonin 1A receptor came to 8.9 nM; at serotonin 2 receptor, 2.4 nM.
On to `CCN1CCN(c2nc(C#CCCc3ccccc3)cc3ccccc23)CC1` [Example 182, 1-(1-Ethylpiperazin-4-Yl)-3-[4-Phenyl-1-Butynyl)Isoquinoline Dihydrochloride], for which the Ki at serotonin 1A receptor turned out to be 10 nM; at serotonin 2 receptor, 15.9 nM.
For `CCN1CCN(c2nc(/C=C/c3ccc(OC)cc3)cc3ccccc23)CC1` [Example 190, 1-(1-Ethylpiperazin-4-Yl)-3-[Trans-2-(4-Methoxyphenyl)Ethenyl]Isoquinoline Dihydrochloride], the Ki came out at 35 nM on serotonin 1A receptor and 3.85 nM on serotonin 2 receptor.
`CCN1CCN(c2nc(-c3ccc(OC)cc3)cc3ccccc23)CC1` [Example 10, 1-(4-Ethylpiperazin-1-yl)-3-(4-methoxyphenyl)isoquinoline]: the figures for the Ki on serotonin 1A receptor and on serotonin 2 receptor were 60 nM and 11 nM, respectively.
In the case of `CCN1CCN(c2nc(-c3ccc(N4CCC(O)CC4)nc3)cc3ccccc23)CC1` [Example 152, 1-(4-ethylpiperazin-1-yl)-3-[2-(4-hydroxypiperidin-1-yl)pyridin-5-yl]isoquinoline trihydrochloride], the Ki on serotonin 1A receptor worked out at 6.1 nM; on serotonin 2 receptor it was 12.4 nM.
On to `CCN1CCN(c2nc(-c3ccc(N4CCSCC4)nc3)cc3ccsc23)CC1` [Example 264, 5-[2-(4-thiomorpholinyl)pyridin-5-yl]-7-(4-ethylpiperazine-1-yl)thieno[2,3-c]pyridine Hydrochloride], for which the Ki on serotonin 1A receptor is 61.3 nM; at serotonin 2 receptor it was 3.34 nM.
On to `CCN1CCN(c2nc(C(=O)c3ccccc3OC)cc3ccccc23)CC1` [Example 111, 3-(2-Methoxyphenylcarbonyl)-1-(4-ethylpiperazin-1-yl)isoquinoline Oxalate], for which the Ki at serotonin 1A receptor stood at 10.3 nM; on serotonin 2 receptor, 89.9 nM.
Take `CCN1CCN(c2nc(-c3ccc(N4CCC(OC)CC4)nc3)cc3ccccc23)CC1` [Example 153, 1-(4-ethylpiperazin-1-yl)-3-[2-(4-methoxypiperidin-1-yl)pyridin-5-yl]isoquinoline trihydrochloride]: the Ki on serotonin 1A receptor is 12.9 nM; on serotonin 2 receptor it was 1.5 nM.
Take `CCN1CCN(c2nc(-c3ccc(C#CCO)cc3)cc3sccc23)CC1` [Example 464, 4-(4-ethylpiperazin-1-yl)-6-[4-(3-hydroxy-1-propynyl)phenyl]thieno[3,2-c]pyridine pyridine]: the Ki at serotonin 1A receptor was found to be 47.8 nM; at serotonin 2 receptor it was 1.4 nM.
The corresponding values for `CCN1CCN(c2nc(Cc3ccccc3)cc3ccccc23)CC1` [Example 419, 1-(4-ethylpiperazin-1-yl)-3-benzylisoquinoline] are 94.8 nM and 16.4 nM.
On to `CCN1CCN(c2nc(-c3ccc(N4CCOC4=O)cc3)cc3ccccc23)CC1` [Example 95, 3-[4-(3-Oxazolidinone)phenyl]-1-(4-ethylpiperazin-1-yl)isoquinoline Hydrochloride], for which the Ki is 7.8 nM at serotonin 1A receptor and 21.2 nM on serotonin 2 receptor.
The corresponding values for `CCN1CCN(c2nc(-c3ccc(CCCO)c(Cl)c3)cc3ccsc23)CC1` [Example 257, 5-[4-(3-hydroxypropyl)-3-chlorophenyl]-7-(4-ethylpiperazin-1-yl)thieno[2,3-c]pyridine Oxalate] are 12.6 nM and 23.2 nM.
With `CCN1CCN(c2nc(-c3ccc(OC)cc3)nc3ccccc23)CC1` [Example 427, 4-(4-ethylpiperazin-1-yl)-2-(4-methoxyphenyl)quinazoline Dihydrochloride], the Ki was 80.9 nM on serotonin 1A receptor and 300 nM at serotonin 2 receptor.
Regarding `CCN1CCN(c2nc(-c3ccc(NS(=O)(=O)CC)cc3)cc3ccccc23)CC1` [Example 71, 3-(4-Ethylsulfonylaminophenyl)-1-(4-Ethylpiperazin-1-Yl)Isoquinoline Hydrochloride], the Ki at serotonin 1A receptor was determined as 2 nM; on serotonin 2 receptor, 1.5 nM.
Turning to `CCN1CCN(c2nc(-c3ccc(OC)cc3)cc3ccoc23)CC1` [Example 467, 7-(4-ethylpiperazin-1-yl)-5-(4-methoxyphenyl)furo[2,3-c]pyridine dihydrochloride], the Ki was 20.6 nM at serotonin 1A receptor and 93.1 nM on serotonin 2 receptor.
Take `CCCNS(=O)(=O)c1ccc(-c2cc3ccccc3c(N3CCN(CC)CC3)n2)cc1` [Example 353, 1-(4-ethylpiperazin-1-yl)-3-[4-(N-propylsulfamoyl)phenyl]isoquinoline dihydrochloride]: the Ki on serotonin 1A receptor came to 1.1 nM; on serotonin 2 receptor, 0.24 nM.
With `CCN1CCN(c2nc(-c3ccc(C4CCOCC4)cc3)cc3ccccc23)CC1` [Example 83, 3-[4-(Tetrahydropyran-4-yl)phenyl]-1-(4-ethylpiperazin-1-yl)isoquinoline Hydrochloride], the Ki on serotonin 1A receptor was 75.6 nM; at serotonin 2 receptor, 4.3 nM.
As to `CCN1CCN(c2nc(-c3ccc(S(=O)(=O)N4CCOCC4)cc3)cc3ccccc23)CC1` [Example 75, 3-[(4-Morpholinyl)Sulfonylphenyl]-1-(4-Ethylpiperazin-1-Yl)Isoquinoline Hydrochloride], the figures for the Ki at serotonin 1A receptor and at serotonin 2 receptor were 7.7 nM and 10 nM, respectively.
As to `CCN1CCN(c2nc(C=C(COC)c3ccccc3)cc3ccccc23)CC1` (stereo in doubt) [Example 208, 3-[(E)-2-Methoxymethyl-2-Phenylethenyl]-1-(4-Ethylpiperazin-1-Yl)Isoquinoline Oxalate], the Ki on serotonin 1A receptor was 91.6 nM; on serotonin 2 receptor it was 7.62 nM.
In the case of `CCN1CCN(c2nc(-c3ccc(CCC(C)O)cc3)cc3cccnc23)CC1` (centres unmarked) [Example 248, 8-(1-ethylpiperazin-4-yl)-6-[4-(3-hydroxybutyl)phenyl]-1,7-naphthyridine Dihydrochloride], the values for the Ki at serotonin 1A receptor and on serotonin 2 receptor were 43 nM and 31.6 nM, respectively.
As for `CCN1CCN(c2nc(/C=C/c3cc(N4CCOCC4)ncn3)cc3ccccc23)CC1` [Example 215, 3{(E)-2-[4-(4-morpholinyl)pyrimidin-6-yl]ethenyl}-1-(4-ethylpiperazin-1-yl)isoquinoline oxalate], the values for the Ki on serotonin 1A receptor and on serotonin 2 receptor were 51.9 nM and 20.9 nM, respectively.
Take `CCN1CCN(c2nc(/C=C/c3ccc(N4CCOCC4)nc3)cc3ccccc23)CC1` [Example 200, 3-[(E)-2-[2-(4-Morpholinyl)Pyridin-5-Yl]Ethenyl]-1-(4-Ethylpiperazin-1-Yl)Isoquinoline Hydrochloride]: the Ki came to 77.3 nM at serotonin 1A receptor and 7.33 nM at serotonin 2 receptor.
